Article PMC11257039, “VCP activator reverses nuclear proteostasis defects and enhances TDP-43 aggregate clearance in multisystem proteinopathy models” (The Journal of Clinical Investigation, 2024)
Several values for one entry are separate records, joined by “and”; a condition that tells them apart may be missing. Identical values can stand only once.

Legend:
R159H VCP = target: T1, R159H VCP (Mus musculus, UniProt Q01853, R159H); assay: MESG-PNP ATPase assay, recombinant R159H VCP; format: biochemical; details: VCP Mutation R159H; replicate values
T1 construct: in the full-length recombinant VCP; His (N); made in house; host or cells: Escherichia coli BL21-CodonPlus (DE3)-RIL
Protocol: (§1) All other experiments were performed using the EnzCheck phosphatase assay kit (Molecular Probes). ATPase activity was measured in a 96-well flat bottom plate (Thermo Fisher Scientific). 50 nM VCP was incubated in 100 μL ATPase buffer with 2% DMSO with 25 μM compound and various ATP concentrations. The absorbance at 360 ± 5 nm was measured for more than 15 minutes at 25°C. Phosphate release was quantified based on a phosphate standard curve performed on the same plate. Initial enzyme velocity was determined by fitting the linear portion of the data to a linear regression model.
(§2) Figure S8. VCP activators variable effect on ATPase activity of MSP associated mutations in recombinant VCP. ATPase activity of 50 nM recombinant VCP protein was measured using an MESG-PNP assay upon treatment with 25 μM compound versus 2% DMSO control at 1mM ATP for WT (also shown in Fig. 5c), A232E, R155H, and R159H (n=3 with 3 technical replicated per experiment; points are expressed as beta ± SE, linear effects model: *P<0.05,**P<0.01; ***P<0.001; ****P<0.0001).

[1] = test system: WT HeLa cells expressing GFP-TDP-4FL; assay: Flow cytometry of GFP-TDP-4FL integrated fluorescence, WT HeLa; format: cell-based; details: for Integrated Fluorescence WT (Normalized to CHX): replicate values
Protocol: Drug treatments were performed on neurons 7 days after lentiviral transduction and 14 days after neuronal induction. HeLa cells were collected using trypsin and pelleted at 1000g for 3 minutes. Cell pellets were resuspended in colorless DMEM (Invitrogen) supplemented with 2% FBS and filtered through a BD tube with cell strainer (BD Biosciences) for flow cytometry analysis on LSR II (BD Biosciences). Data analysis was performed on FlowJo v10 software. Integrated fluorescence intensity was determined by multiplying percent positive GFP and GFP median fluorescence values.

recombinant WT VCP [2] = target: T2, recombinant WT VCP (Mus musculus, UniProt Q01853); assay: Kinase-Glo ATPase assay, recombinant WT VCP; format: biochemical; details: for ATP consumed: WT VCP no UN
T2 construct: in the full-length recombinant VCP; His (N); made in house; host or cells: Escherichia coli BL21-CodonPlus (DE3)-RIL
Protocol: (§3) Experiments with varied activator concentration and screening were measured using the Kinase-Glo Luminescent Kinase Assay (Promega). Reactions were incubated at 25°C for 1 hour then reduced to 4°C in a thermocycler consisting of 50 nM of recombinant VCP with or without 50 nM UFD1/NPLOC4 in 50 uL ATPase buffer (25 mM HEPES, pH 7.5, 100 mM NaCl, 10 mM MgCl2) at 2% DMSO with 62.5 μM ATP and a range of activator concentrations (Gibco, Sigma-Aldrich). Equal volumes of reaction and Kinase-Glo reagent were incubated for 20 minutes at room temperature in a 96 well white flat bottom plate (Corning). Luminescence was measured in a microplate reader (Spark 20M, Tecan).
(§4) Experiments with varied compound concentration were fit to a 3-parameter dose curve with asymmetric profile likelihood 95% confidence intervals in GraphPad Prism 9 (GraphPad). Experiments with varied ATP concentration were fit to a Michaelis-Menten model with asymmetric profile likelihood 95% confidence intervals. Significance was determined for experiments with fixed compound or fixed ATP concentration using a linear mixed-effects model.

luciferase = assay: Luciferase counter assay: Kinase-Glo with 62.5 μM ATP without recombinant VCP; format: biochemical; details: for measured ATP consumed (nmol) without VCP: replicate values
Protocol: as §3
(A-D) Measured ATP as determined by a Kinase-Glo assay of 62.5μM ATP in the presence of increasing concentrations of compound without recombinant VCP present. (for all panels: n=3 with 4 technical replicates per experiment, points are expressed as beta ± SE, linear mixed effects model, P>0.05 for each […]
(1 picture or pasted object on this page, not shown here)

A232E VCP = target: T3, A232E VCP (Mus musculus, UniProt Q01853, A232E); assay: MESG-PNP ATPase assay, recombinant A232E VCP; format: biochemical; details: VCP Mutation A232E; replicate values
T3 construct: in the full-length recombinant VCP; His (N); made in house; host or cells: Escherichia coli BL21-CodonPlus (DE3)-RIL
Protocol: as §1, §2

recombinant WT VCP [3] = target: T2, recombinant WT VCP; assay: MESG-PNP (EnzCheck) phosphate release ATPase assay, WT VCP; format: biochemical; details: for ATPase activity v0/ET: 25 μM compound, replicate experiments
Protocol: as §1, §4

R155H VCP = target: T4, R155H VCP (Mus musculus, UniProt Q01853, R155H); assay: MESG-PNP ATPase assay, recombinant R155H VCP; format: biochemical; details: VCP Mutation R155H; replicate values
T4 construct: in the full-length recombinant VCP; His (N); made in house; host or cells: Escherichia coli BL21-CodonPlus (DE3)-RIL
Protocol: as §1, §2

WT VCP + Ufd1/Nploc4 = target: T5, WT VCP + Ufd1/Nploc4 (Mus musculus, UniProt Q01853); assay: Kinase-Glo ATPase assay, WT VCP with UFD1/NPLOC4 (UN); format: biochemical; details: for ATP consumed: WT VCP with UN
T5 construct: in the full-length recombinant VCP; His (N); made in house; host or cells: E. coli (VCP: BL21-CodonPlus (DE3)-RIL; UFD1 and NPLOC4: E. coli (DE3), purified by the MD Anderson core)
Protocol: as §3, §4

T2 sequence (Q01853 whole entry): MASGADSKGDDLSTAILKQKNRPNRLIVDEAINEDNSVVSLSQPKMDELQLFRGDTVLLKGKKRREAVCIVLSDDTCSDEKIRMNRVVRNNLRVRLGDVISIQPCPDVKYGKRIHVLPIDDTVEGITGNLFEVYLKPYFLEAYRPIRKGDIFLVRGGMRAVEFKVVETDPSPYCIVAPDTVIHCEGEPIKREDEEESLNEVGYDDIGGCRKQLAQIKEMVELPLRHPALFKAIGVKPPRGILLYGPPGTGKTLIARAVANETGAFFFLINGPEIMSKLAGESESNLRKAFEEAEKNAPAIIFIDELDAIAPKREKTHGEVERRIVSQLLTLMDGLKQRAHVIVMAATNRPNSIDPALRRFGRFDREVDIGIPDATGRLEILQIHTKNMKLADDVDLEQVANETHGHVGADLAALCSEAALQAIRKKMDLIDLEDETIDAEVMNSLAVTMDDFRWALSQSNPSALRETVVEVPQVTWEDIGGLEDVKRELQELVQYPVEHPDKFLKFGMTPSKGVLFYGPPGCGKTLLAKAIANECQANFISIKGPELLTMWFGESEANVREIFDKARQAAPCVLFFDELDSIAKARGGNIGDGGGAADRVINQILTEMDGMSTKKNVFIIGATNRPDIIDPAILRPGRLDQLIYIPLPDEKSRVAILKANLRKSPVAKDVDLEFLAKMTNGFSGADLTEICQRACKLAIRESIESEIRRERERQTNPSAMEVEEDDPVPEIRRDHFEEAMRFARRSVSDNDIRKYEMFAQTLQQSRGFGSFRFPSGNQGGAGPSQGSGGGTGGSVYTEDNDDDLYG
T5 sequence (Q01853 whole entry): as above
T5 sequence (Q92890 whole entry partner): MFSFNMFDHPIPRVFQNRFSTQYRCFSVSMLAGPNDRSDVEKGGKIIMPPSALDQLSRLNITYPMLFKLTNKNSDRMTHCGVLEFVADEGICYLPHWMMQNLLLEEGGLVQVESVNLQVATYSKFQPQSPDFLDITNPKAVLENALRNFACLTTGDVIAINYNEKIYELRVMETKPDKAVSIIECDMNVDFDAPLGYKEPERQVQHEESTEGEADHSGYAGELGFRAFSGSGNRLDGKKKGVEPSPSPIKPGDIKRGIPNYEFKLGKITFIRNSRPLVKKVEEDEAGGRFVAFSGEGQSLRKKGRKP
T5 sequence (Q8TAT6 whole entry partner): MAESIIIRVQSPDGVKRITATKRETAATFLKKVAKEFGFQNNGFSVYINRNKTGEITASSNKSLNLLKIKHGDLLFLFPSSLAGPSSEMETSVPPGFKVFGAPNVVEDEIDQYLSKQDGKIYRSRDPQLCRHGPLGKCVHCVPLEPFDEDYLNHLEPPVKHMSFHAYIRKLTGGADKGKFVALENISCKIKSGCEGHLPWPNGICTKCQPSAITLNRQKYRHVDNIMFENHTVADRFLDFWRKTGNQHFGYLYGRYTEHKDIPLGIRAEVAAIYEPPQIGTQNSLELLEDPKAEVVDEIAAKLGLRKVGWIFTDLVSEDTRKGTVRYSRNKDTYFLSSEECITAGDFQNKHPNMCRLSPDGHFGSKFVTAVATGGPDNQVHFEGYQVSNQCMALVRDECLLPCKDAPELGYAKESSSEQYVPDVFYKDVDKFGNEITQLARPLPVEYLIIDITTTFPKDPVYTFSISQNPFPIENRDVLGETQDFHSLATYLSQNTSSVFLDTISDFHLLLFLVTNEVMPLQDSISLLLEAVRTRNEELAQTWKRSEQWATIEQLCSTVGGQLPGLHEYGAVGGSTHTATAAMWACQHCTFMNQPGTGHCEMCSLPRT
T1 sequence (Q01853 whole entry R159H): as the sequence (Q01853 whole entry) above, with R159H counted along it
T3 sequence (Q01853 whole entry A232E): as the sequence (Q01853 whole entry) above, with A232E counted along it
T4 sequence (Q01853 whole entry R155H): as the sequence (Q01853 whole entry) above, with R155H counted along it

Clc1ccc2[nH]c3c(N4CCC5(CC4)OCCO5)ncnc3c2c1 [UP158]
ATPase activity, nmol Pi / nmol VCP / s (R159H VCP): 1.332 nmol Pi / nmol VCP / s and 1.432 nmol Pi / nmol VCP / s and 1.240 nmol Pi / nmol VCP / s | Integrated Fluorescence WT (Normalized to CHX) ([1]; 5μM compound with CHX): 0.937 and 0.971 and 1.133 and 0.982 and 1.082 and 0.863 | Integrated Fluorescence WT (Normalized to CHX) ([1]; 20μM compound with CHX): 1.023 and 1.038 and 1.143 and 1.051 and 0.869 and 0.804 | clearance of GFP-TDP-4FL aggregates (integrated fluorescence) ([1]; MG132, then CHX with 5 or 20 μM activator): did not have a significant effect | EC50 (recombinant WT VCP [2]; EC50 (μM) (95% CI), WT VCP without UN, 50 nM VCP, 62.5 μM ATP, 2% DMSO): 2.41 µM | ATP consumed (recombinant WT VCP [2]; 0.78 μM compound): 1.347 nmol and 0.994 nmol and 1.148 nmol | ATP consumed (recombinant WT VCP [2]; 1.56 μM compound): 1.354 nmol and 1.059 nmol and 1.210 nmol | ATP consumed (recombinant WT VCP [2]; 3.13 μM compound): 1.498 nmol and 1.151 nmol and 1.481 nmol | ATP consumed (recombinant WT VCP [2]; 6.25 μM compound): 1.483 nmol and 1.304 nmol and 1.494 nmol | ATP consumed (recombinant WT VCP [2]; 12.5 μM compound): 1.656 nmol and 1.339 nmol and 1.428 nmol | ATP consumed (recombinant WT VCP [2]; 25 μM compound): 1.637 nmol and 1.369 nmol and 1.624 nmol | ATP consumed (recombinant WT VCP [2]; 50 μM compound): 1.715 nmol and 1.360 nmol and 1.703 nmol | ATP consumed (recombinant WT VCP [2]; 100 μM compound): 1.794 nmol and 1.361 nmol and 1.605 nmol | recombinant WT VCP ATPase activity (recombinant WT VCP [2]; in vitro validation of 106 screen hits): significantly increased | increase of VCP activity (recombinant WT VCP [2]; maximum, WT VCP without UN): 50% | luciferase activity (measured ATP without VCP) (luciferase; 62.5 μM ATP, increasing concentrations of compound): did not inhibit luciferase activity | measured ATP consumed (nmol) without VCP (luciferase; compound 6.25 μM): 3.401 nmol and 3.236 nmol and 3.539 nmol and 3.366 nmol and 3.357 nmol and 3.469 nmol and 3.543 nmol and 3.577 nmol and 3.421 nmol and 3.118 nmol and 3.388 nmol | measured ATP consumed (nmol) without VCP (luciferase; compound 12.5 μM): 3.307 nmol and 3.430 nmol and 3.284 nmol and 3.618 nmol and 3.378 nmol and 3.515 nmol and 3.417 nmol and 3.480 nmol and 3.503 nmol and 3.589 nmol and 3.525 nmol and 3.323 nmol | measured ATP consumed (nmol) without VCP (luciferase; compound 25 μM): 3.304 nmol and 3.386 nmol and 3.409 nmol and 3.378 nmol and 3.414 nmol and 3.361 nmol and 3.370 nmol and 3.512 nmol and 3.476 nmol and 3.518 nmol and 3.523 nmol and 3.257 nmol | measured ATP consumed (nmol) without VCP (luciferase; compound 50 μM): 3.338 nmol and 3.481 nmol and 3.508 nmol and 3.447 nmol and 3.274 nmol and 3.450 nmol and 3.266 nmol and 3.477 nmol and 3.478 nmol and 3.313 nmol and 3.466 nmol and 3.330 nmol | measured ATP consumed (nmol) without VCP (luciferase; compound 100 μM): 3.162 nmol and 3.374 nmol and 3.402 nmol and 3.401 nmol and 3.130 nmol and 3.262 nmol and 3.295 nmol and 3.438 nmol and 3.458 nmol and 3.582 nmol and 3.728 nmol and 3.332 nmol | ATPase activity, nmol Pi / nmol VCP / s (A232E VCP): 1.493 nmol Pi / nmol VCP / s and 1.756 nmol Pi / nmol VCP / s and 2.037 nmol Pi / nmol VCP / s | kcat (nmol Pi / nmol VCP / s) (95% CI) (recombinant WT VCP [3]; 25 μM activator): 0.356 (0.320, 0.396) nmol Pi / nmol VCP / s | increase in kcat (recombinant WT VCP [3]; 25 μM activator, versus DMSO): more than 50% | ATPase activity v0/ET (recombinant WT VCP [3]; [ATP] 62.5 μM): 0.191 nmol Pi / nmol VCP / s and 0.186 nmol Pi / nmol VCP / s and 0.163 nmol Pi / nmol VCP / s | ATPase activity v0/ET (recombinant WT VCP [3]; [ATP] 125 μM): 0.237 nmol Pi / nmol VCP / s and 0.241 nmol Pi / nmol VCP / s and 0.210 nmol Pi / nmol VCP / s | ATPase activity v0/ET (recombinant WT VCP [3]; [ATP] 250 μM): 0.277 nmol Pi / nmol VCP / s and 0.260 nmol Pi / nmol VCP / s and 0.266 nmol Pi / nmol VCP / s | ATPase activity v0/ET (recombinant WT VCP [3]; [ATP] 500 μM): 0.330 nmol Pi / nmol VCP / s and 0.296 nmol Pi / nmol VCP / s and 0.298 nmol Pi / nmol VCP / s | ATPase activity v0/ET (recombinant WT VCP [3]; [ATP] 1000 μM): 0.372 nmol Pi / nmol VCP / s and 0.331 nmol Pi / nmol VCP / s and 0.333 nmol Pi / nmol VCP / s | ATPase activity, nmol Pi / nmol VCP / s (R155H VCP): 1.189 nmol Pi / nmol VCP / s and 1.361 nmol Pi / nmol VCP / s and 1.473 nmol Pi / nmol VCP / s | change in EC50 with UN compared to without UN (WT VCP + Ufd1/Nploc4): significantly increased | change in maximum percent activity with UN compared to without UN (WT VCP + Ufd1/Nploc4): stayed the same | EC50 (WT VCP + Ufd1/Nploc4; WT VCP + Ufd1/Nploc4, 1:1 molar ratio): 14.3 µM | ATP consumed (WT VCP + Ufd1/Nploc4; 1.56 μM compound): 1.283 nmol and 1.271 nmol and 1.261 nmol | ATP consumed (WT VCP + Ufd1/Nploc4; 3.13 μM compound): 1.368 nmol and 1.194 nmol and 1.381 nmol | ATP consumed (WT VCP + Ufd1/Nploc4; 6.25 μM compound): 1.593 nmol and 1.386 nmol and 1.366 nmol | ATP consumed (WT VCP + Ufd1/Nploc4; 12.5 μM compound): 1.674 nmol and 1.527 nmol and 1.645 nmol | ATP consumed (WT VCP + Ufd1/Nploc4; 25 μM compound): 1.721 nmol and 1.705 nmol and 1.784 nmol | ATP consumed (WT VCP + Ufd1/Nploc4; 50 μM compound): 1.865 nmol and 1.744 nmol and 1.853 nmol | ATP consumed (WT VCP + Ufd1/Nploc4; 100 μM compound): 1.867 nmol and 1.844 nmol and 1.895 nmol
